Experimental data published in patent US12569440B2, “Solid formulation of a 1,2,4-oxadiazole derivative” (ABAXYS THERAPEUTICS, priority 2019, dated 2026).

Key:
[1] = Specific surface area by BET analysis (nitrogen adsorption-desorption at 77 K); format: physicochemical; settings: for BET surface (specific surface area): nitrogen adsorption at 77 K, 0.05-0.20 P/P0
Experimental: Specific surface area was measured by Nitrogen adsorption-desorption analyses at 77 K with a volumetric adsorption analyser (Micromeritics 3Flex physisorption apparatus). The Brunauer—Emmet—Teller (BET) method was applied in the 0.05-0.20 P /PO range to calculate the specific surface area.

[2] = Formulation study: mixing Compound A with liquid or solid acids, resulting composition and physical stability; format: physicochemical; settings: Compound A alone, before mixing
Experimental: In a round bottom flask, to a solution of A in anhydrous Et2O (6 mL/mmol) under argon atmosphere, the acid was added dropwise, as a pure liquid or in anhydrous Et2O (3 mL/mmol) solution. The mixture was allowed to stand for 3 h. The product was then isolated by evaporation of the solvent and was dried under vacuum.
Two different net grinding procedures were used: • Solid mixing 1: In an Eppendorf, A (200 mg, 0.5 mmol) and the acid were added. The Eppendorf was then placed in the grinding device (Retsch MM400) and allowed to stir for 90 min at 30 Hz. • Solid mixing 2: In a mortar, A (200 mg, 0.5 mmol) and acid were added and then manually grinded with a pestle.

O=C1NS(=O)(=O)c2ccccc21 [Saccharin (after grinding), 1,1-dioxo-1,2-benzothiazol-3-one]
BET surface (specific surface area) [1]: 6.7 m^2/g
change of specific surface area (BET) ([1]; saccharin after grinding vs commercial, A-2SA vs saccharin alone after same grinding procedure): about −30%

FC(F)(F)c1ccc(-c2noc(CN3CCCC(CN4CCOCC4)C3)n2)cc1 (stereo not shown) [Compound A]
physical form of free compound [2]: oil

O=C1NS(=O)(=O)c2ccccc21 [Saccharin, 1,1-dioxo-1,2-benzothiazol-3-one]
BET surface (specific surface area) ([1]; listed as Saccharin (commercial)): 9.9 m^2/g
